In this experiment the target is T1, Urease Purified from Proteus mirabilis (Pr-91) (Proteus mirabilis, UniProt P17086).
T1 construct: host or cells: Proteus mirabilis (Pr-91)
Put plainly: Inhibition of urease purified from Proteus mirabilis (Pr-91). It counts as biochemical. An excerpt:
The Inhibition of Urease Purified from Proteus mirabilis (Pr-91)
Concentration of Compounds of Formula [drawing 5] for 50% Inhibition of Urease.

Molecules are shown by their SMILES. Like-named read-outs stand apart in the source and are kept apart here.

T1 sequence (P17086 whole entry): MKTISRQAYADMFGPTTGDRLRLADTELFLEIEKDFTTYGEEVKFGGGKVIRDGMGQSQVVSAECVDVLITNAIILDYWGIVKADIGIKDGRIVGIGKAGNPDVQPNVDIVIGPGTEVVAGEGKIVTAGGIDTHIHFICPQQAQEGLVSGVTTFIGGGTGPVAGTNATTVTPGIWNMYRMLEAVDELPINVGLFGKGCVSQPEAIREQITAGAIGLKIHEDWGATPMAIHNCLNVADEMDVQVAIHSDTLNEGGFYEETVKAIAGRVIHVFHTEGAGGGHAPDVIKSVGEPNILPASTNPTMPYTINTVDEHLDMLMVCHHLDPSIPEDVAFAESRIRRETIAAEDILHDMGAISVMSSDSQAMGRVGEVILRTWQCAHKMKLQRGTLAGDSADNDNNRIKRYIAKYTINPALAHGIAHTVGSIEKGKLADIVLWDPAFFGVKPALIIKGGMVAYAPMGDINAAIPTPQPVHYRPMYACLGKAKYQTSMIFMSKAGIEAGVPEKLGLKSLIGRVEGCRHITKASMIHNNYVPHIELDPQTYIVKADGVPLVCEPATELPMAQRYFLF
T1 sequence (P17088 whole entry, further chain): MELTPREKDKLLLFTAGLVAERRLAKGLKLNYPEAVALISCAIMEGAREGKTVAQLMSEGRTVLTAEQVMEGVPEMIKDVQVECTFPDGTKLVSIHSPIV
T1 sequence (P17087 whole entry, further chain): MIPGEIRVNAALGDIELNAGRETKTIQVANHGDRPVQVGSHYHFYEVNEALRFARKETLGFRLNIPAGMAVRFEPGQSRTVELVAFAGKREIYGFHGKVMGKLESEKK

As to `NP(N)(=O)Nc1cccc(C(F)(F)F)c1` [3-Trifluoromethylphenyl, N-[3-(Trifluoromethyl)phenyl]phosphorotriamide], the IC50 was determined as 40 µM.

`Nc1ccc(NP(N)(N)=O)cc1` [4-Aminophenyl, N-(4-Aminophenyl)phosphorotriamide]: the IC50 was determined as 16 µM.

Compound `N#Cc1ccc(NP(N)(N)=O)cc1` [4-Cyanophenyl, N-(4-Cyanophenyl)phosphorotriamide] gave an IC50 of 50 µM.

`NP(N)(=O)Nc1ccc([N+](=O)[O-])cc1` [4-Nitrophenyl, N-(4-Nitrophenyl)phosphorotriamide] gave an IC50 of 0.35 µM.

As for `NP(N)(N)=O` [H], the IC50 (urease purified from Proteus mirabilis (Pr-91), read-out: Concentration of compound for 50% inhibition of urease) worked out at 0.12 µM.

In the case of `NP(N)(=O)Nc1ccccc1` [Phenyl], the IC50 came to 13 µM.

For the origin of these results see patent US4242325A, “Phosphorotriamides as urease inhibitors” (priority 1979, dated 1980).
